Source: US9918966B2, “Anti-cancer compositions and methods” (The Penn State Research Foundation, priority 2013, dated 2018)
Read-outs that look alike come from different tables or passages of the source.

Experiments:
[1] = system: 1205 Lu melanoma cells; assay: Western blot analysis; format: cell-based, human
Source text: (§1) Cell lysates are harvested and processed as described in Sharma A et al., Cancer Res 2006, 66:8200-9. […] Protein lysates are collected for Western blotting. Blots are probed with total and phospho-Akt (Ser473), phospho-PRAS40 (Thr246), phospho-Erk1/2 (Thr202/Tyr204), total and Phospho-Mek1/2 (Ser217) and cleaved PARP from Cell Signaling Technology (Danvers, Mass.). Total PRAS40 from Invitrogen (Carlsbad, Calif.). Total Erk, cyclin D1, p27, Alpha-enolase and secondary antibodies conjugated with horseradish peroxidase from Santa Cruz Biotechnology (Santa Cruz Biotechnology, Santa Cruz, Calif.). COX-1 and COX-2 antibodies were obtained from Cayman Chemical Company, Ann Arbor, Mich. Immunoblots are developed using the enhanced chemiluminescence detection system (Amersham Pharmacia Biotech, Piscataway, N.J.).

[2] = system: UACC 903 melanoma cells; assay: Western blot analysis; format: cell-based, human
Source text: as §1

[3] = system: 1205 Lu metastatic melanoma cells; assay: cells; conditions: Homo sapiens
Description: (§2) Cell viability, proliferation, apoptosis and cell cycle analysis: Viability and IC50 (μmol/L) of normal human melanocytes, fibroblast and melanoma cells following treatment with inhibitors are measured using the MTS assay (Promega, Madison, Wis.) described in Sharma A, et al., Clin Cancer Res 2009; 15:1674-85; and Madhunapantula S V, et al., Mol Cancer Ther 2008; 7:1297-308. […] IC50 values for each inhibitor in μmol/L for respective cell lines are measured from three independent experiments using GraphPad Prism version 4.01 (GraphPad Software, La Jolla, Calif.).
(§3) The number of viable cells is measured using MTS and percentage decrease in viability calculated. IC50 values for each inhibitor in μmol/L for respective cell lines are measured from three independent experiments using GraphPad Prism version 4.01 (GraphPad Software, La Jolla, Calif.).

[4] = system: UACC 903 metastatic melanoma cells; assay: cells; conditions: Homo sapiens
Description: as §2, §3

[5] = system: MiaPaca-2 (Pancreas); assay: IC50 for killing cancer cells; format: cell-based; conditions: Homo sapiens, MIA PaCa-2
Source text: (§4) Therapeutic universality of selenocoxib-1-GSH for killing cancer cells is examined by treating pancreatic (MiaPaca-2), breast (MDA-MB-231), prostate (PC-3) or sarcoma (HT-1080) and colon (Caco2) cell. lines with the drug and establishing the IC50 for each cell line, Table III. Selenocoxib-1-GSH kills the various cancer cell lines at 2-3-fold lower concentrations than normal fibroblast cells.

[6] = system: HT-1080 (Fibro sarcoma); assay: IC50 for killing cancer cells; format: cell-based; conditions: Homo sapiens
Source text: as §4

[7] = system: PC-3 (Prostate); assay: IC50 for killing cancer cells; format: cell-based; conditions: Homo sapiens
Source text: as §4

[8] = system: Caco-2 (Colon); assay: IC50 for killing cancer cells; format: cell-based; conditions: Homo sapiens
Source text: as §4

[9] = system: MDA-MB-231 (Breast); assay: IC50 for killing cancer cells; format: cell-based; conditions: Homo sapiens
Source text: as §4

[10] = Source text: Number of mice surviving and changes in body weight after 7 days of drug treatment is scored (Table I).
[11] = system: 1205 Lu melanoma cells; assay: Cell cycle analysis, propidium iodide FACScan; format: cell-based, human; conditions: 72 h
Description: (§5) The effect of selenocoxib-1-GSH on cell cycle distribution is measured by analyzing propidium iodide stained 1205 Lu and UACC 903 cells using a BD FACScan. […] Total floating and adherent cells are collected following trypsinization and stained using a 1 mL propidium iodide solution containing 100 μg/mL propidium iodide; (Sigma, St Louis, Mo.), 20 μg/mL Ribonuclease A (Roche diagnostics, Indianapolis, Ind.) and 3 μg/mL Triton X-100 dissolved in 0.1% (W/V) sodium citrate for 30 m at 4° C.
(§6) Selenocoxib-1-GSH treatment increases the sub-G0-G1 cell population, which is indicative of cellular apoptosis. […] Total floating and adherent cells are collected, and stained with propidium iodide to analyze the distribution of cells in different phases of the cell cycle stages using a FACScan analyzer. […] Data represents an average of 2 independent experiments.

[12] = system: UACC 903 melanoma cells; assay: Cell cycle analysis, propidium iodide FACScan; format: cell-based, human; conditions: 72 h
Description: as §5, §6

[13] = system: FF2441 human fibroblast cells; assay: Cell viability, MTS assay; format: cell-based
Description: as §2, §3

[14] = system: WM35 radial growth phase melanoma cells; assay: Cell viability, MTS assay; format: cell-based; conditions: Homo sapiens
Description: as §2, §3

[15] = system: WM115 vertical growth phase melanoma cells; assay: Cell viability, MTS assay; format: cell-based; conditions: Homo sapiens, WM-115
Description: as §2, §3

[16] = system: FOM103 normal human melanocytes; assay: Cell viability, MTS assay; format: cell-based; conditions: Melanocyte
Description: as §2, §3

For `NC(CCC(=O)NC(CS[Se]Cc1cc(-c2ccccc2)n(-c2ccc(S(N)(=O)=O)cc2)n1)C(=O)NCC(=O)O)C(=O)O` (centres unmarked) [Selenocoxib-1-GSH, selenocoxib-1-glutathione], the “cleaved PARP protein” value [1] was “elevates levels of cleaved PARP protein”, the “expression of cyclin-D1” value [1] was “inhibits the expression of cyclin-D1” and the “levels of p27” value [1] was “increases the levels of p27”. The pErk1/2 levels ([1]; 15 and 20 μmol/L) was “increased pErk1/2 levels”, the pPRAS40 ([1]; 72 h) was “reduces expression” and the Akt phosphorylation ([1]; 72 h, increasing concentrations, compared to celecoxib) was “inhibited the Akt phosphorylation in a dose dependent manner”. The “cleaved PARP protein” value ([2]; UACC 903) was “elevates levels of cleaved PARP protein”, the “expression of cyclin-D1” value ([2]; UACC 903) was “inhibits the expression of cyclin-D1” and the “levels of p27” value ([2]; UACC 903) was “increases the levels of p27”. The pErk1/2 levels ([2]; UACC 903, 15 and 20 μmol/L) was “increased pErk1/2 levels”, the pPRAS40 ([2]; UACC 903, 72 h) was “reduces expression” and the Akt phosphorylation ([2]; UACC 903, 72 h, increasing concentrations, compared to celecoxib) was “inhibited the Akt phosphorylation in a dose dependent manner”. It also gave an IC50 ([3]; 24 h) of 24.6 ± 2.2 µM, an IC50 ([3]; 48 h) of 17.2 ± 1.6 µM and an IC50 ([3]; 72 h) of 10.6 ± 2.6 µM. It also gave a cytotoxicity at 12.5 µM ([3]; 72 h, read-out: decrease in cell viability) of 40 to 60%, an IC50 ([4]; UACC-903, 24 h) of 30.9 ± 2.8 µM and an IC50 ([4]; UACC-903, 48 h) of 20.6 ± 1.7 µM. It also gave an IC50 ([4]; UACC-903, 72 h) of 14.2 ± 1.2 µM, a cytotoxicity at 12.5 µM ([4]; UACC-903, 72 h, read-out: decrease in cell viability) of 40 to 60% and an IC50 [5] of 13.3 ± 1.01 µM. For the same molecule, the IC50 [6] was 9.1 ± 1.89 µM, the IC50 [7] was 16.4 ± 2.11 µM and the IC50 [8] was 16.1 ± 0.87 µM. The IC50 [9] was 15.4 ± 2.51 µM, the “% of weight loss” value ([10]; 0.127 μmoles (10 PPM) intraperitoneally daily for seven days) was “No loss” and the “Mortality at Day 7” value ([10]; 0.127 μmoles intraperitoneally daily for seven days, 3 mice/group (Selenocoxib-1-GSH: 10 PPM)) was 0/3. For the same molecule, the “% of weight loss” value ([10]; 0.254 μmoles (20 PPM) intraperitoneally daily for seven days) was 2.0%, the “Mortality at Day 7” value ([10]; 0.254 μmoles (20 PPM) intraperitoneally daily for seven days, 3 mice/group) was 0/3 and the mortality ([10]; 0.127 to 0.254, seven days) was “no mortality”. For the same molecule, the weight loss ([10]; 0.127 to 0.254 moles (equivalent to 5 to 10 ppm of selenium), seven days) was ~2%, the “increase of sub-G0-G1 population cells” value ([11]; 25 μmol/L) was 6.2 fold and the cell cycle progression ([11]; 12.5 and 25 μmol/L) was “inhibits cell cycle progression”. For the same molecule, the “increase of sub-G0-G1 population cells” value ([12]; UACC 903, 25 μmol/L) was 4.7 fold, the cell cycle progression ([12]; UACC 903, 12.5 and 25 μmol/L) was “inhibits cell cycle progression” and the IC50 ([13]; FF2441, 24 h) was > 100 µM. The IC50 ([13]; FF2441, 48 h) was 75.5 ± 5.6 µM, the IC50 ([13]; FF2441, 72 h) was 36.3 ± 5.6 µM and the IC50 ([14]; WM35, 24 h) was 52.6 ± 3.8 µM. For the same molecule, the IC50 ([14]; WM35, 48 h) was 4.1 ± 0.8 µM, the IC50 ([14]; WM35, 72 h) was 2.7 ± 0.4 µM and the IC50 ([15]; WM115, 24 h) was 30.1 ± 3.3 µM. The IC50 ([15]; WM115, 48 h) was 5.8 ± 0.9 µM, the IC50 ([15]; WM115, 72 h) was 3.1 ± 0.4 µM and the IC50 ([16]; FOM103, 24 h) was 66.3 ± 3 µM. It also gave an IC50 ([16]; FOM103, 48 h) of 53.4 ± 4.3 µM and an IC50 ([16]; FOM103, 72 h) of 41.2 ± 3.2 µM.
